Data published in patent US7741493B2, “Heterocyclic compounds as P2X7 ion channel blockers” (Aventis Pharmaceuticals Inc., priority 2003, dated 2010).
Counter-ions that a name gives are not always drawn. Like-named read-outs stand apart in the source and are kept apart here.

Target: T1, P2X7 (Homo sapiens, UniProt Q99572)
T1 sequence (Q99572 1-595): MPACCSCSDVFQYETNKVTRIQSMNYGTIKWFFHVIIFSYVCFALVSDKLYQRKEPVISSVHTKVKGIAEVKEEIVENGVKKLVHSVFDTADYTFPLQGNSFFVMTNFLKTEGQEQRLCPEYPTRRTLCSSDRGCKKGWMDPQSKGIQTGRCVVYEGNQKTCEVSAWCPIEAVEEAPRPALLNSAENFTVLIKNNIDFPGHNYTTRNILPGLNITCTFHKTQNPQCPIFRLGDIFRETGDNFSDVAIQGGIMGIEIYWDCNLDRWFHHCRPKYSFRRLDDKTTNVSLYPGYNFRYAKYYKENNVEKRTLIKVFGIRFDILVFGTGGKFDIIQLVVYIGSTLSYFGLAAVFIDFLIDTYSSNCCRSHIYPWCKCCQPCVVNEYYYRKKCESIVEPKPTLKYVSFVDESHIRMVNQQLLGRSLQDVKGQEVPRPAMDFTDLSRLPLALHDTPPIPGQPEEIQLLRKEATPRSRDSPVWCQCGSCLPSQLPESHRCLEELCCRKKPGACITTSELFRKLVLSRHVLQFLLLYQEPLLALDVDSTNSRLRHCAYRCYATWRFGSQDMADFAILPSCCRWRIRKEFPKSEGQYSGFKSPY
Test: YO-PRO-1 dye uptake assay in U373 cells stably expressing P2X7
Format: cell-based
Set-up: The complete open reading frame of human P2X7 was amplified from Incyte clone 148057; expressed in transfected cells
Conditions: dye uptake through P2X7, U373 cells, 300 μM BzATP, 5 μM YO-PRO-1, test compounds 30 nM to 3 μM
Procedure: Following a 24-hr exposure to DNA, cells were trypsinized and re-seeded at low density in the presence of […] G418. After incubation for 2 weeks, isolated clones were selected with cloning cylinders and replated in […] G418. Cell clones were then expanded. Clones were screened for P2X7 by applying ATP and recording the resultant current using patch clamp electrophysiology.
U373 cells stably expressing P2X7 were used to screen drugs via a dye uptake assay. Cells were plated overnight on collagen coated 96-well plates at a density of 35,000 cells per well. The following day, culture media was replaced with Mg^++ and Ca^++-free Hank's balanced salt solution and various concentrations of test compounds ranging from 30 nM to 3 μM. Cells were then allowed to incubate with test compounds at 37° C. for 20 minutes. Following this incubation period YO-PRO-1 dye (Molecular Probes, Eugene, Oreg., final concentration 5 μM) and 2′-& 3′-O-(4-Benzolybenzoyl)-Adenosine 5′-triphosphate (Sigma Chemical, St Louis, Mo., final concentration 300 μM) were added to the cells sequentially. Cells were then incubated at 37° C. for 1.5 hours. […] Fluorescence in the presence of test substances was compared to that in the absence of test substances (control).

Structure (SMILES)	IC50 (read-out: IC50)	IC50 (IC50 (nM))
CC(C)(CC1=N[C@@H](c2ccccc2)[C@@H](c2ccccc2)N1)c1ccccc1	10 nM	–
C[C@]1(c2ccccc2)N=C(Cc2ccc(F)cc2F)N[C@H]1c1ccccc1 (relative stereo) [2-(2,4-Difluorobenzyl)-cis-4,5-diphenyl-4-methyl-4,5-dihydro-1H-imidazole trifluoroacetate]	16 nM	–
c1ccc([C@H]2NC(COC3CCCCCCC3)=N[C@H]2c2ccccc2)cc1 [2-[(Cyclooctyloxy)methyl]-cis-4,5-diphenyl-4,5-dihydro-1H-imidazole trifluoroacetate]	506 nM	–
Cc1cccc(CCC2=N[C@@H](c3cccc(F)c3)[C@@H](c3cccc(F)c3)N2)c1 [2-[2-(3-Methylphenyl)ethyl]-cis-4,5-bis-(3-fluorophenyl)-4,5-dihydro-1H-imidazole trifluoroacetate]	385 nM	–
C#CC(CCC)OCC1=N[C@@](C)(c2ccccc2)[C@@H](c2ccccc2)N1 (relative stereo) [2-[(1-Ethynyl-1-butoxy)methyl]-cis-4,5-diphenyl-4-methyl-4,5-dihydro-1H-imidazole hydrochloride]	739 nM	–
C[C@@]1(c2cccc(F)c2)N=C(CCc2ccccc2)N[C@@H]1c1cccc(F)c1 (relative stereo) [2-Phenethyl-cis-4,5-bis-(3-fluorophenyl)-4-methyl-4,5-dihydro-1H-imidazole hydrochloride]	66 nM	–
Fc1ccc(CCC2=N[C@@H](c3cccc(F)c3)[C@@H](c3cccc(F)c3)N2)cc1 [2-[2-(4-Fluorophenyl)ethyl]-cis-4,5-bis-(3-fluorophenyl)-4,5-dihydro-1H-imidazole trifluoroacetate]	572 nM	–
c1ccc([C@H]2NC(COC3CCCCCC3)=N[C@H]2c2ccccc2)cc1 [2-[(Cycloheptyloxy)methyl]-cis-4,5-diphenyl-4,5-dihydro-1H-imidazole trifluoroacetate]	603 nM	–
Fc1ccccc1CCC1=N[C@@H](c2ccccc2)[C@@H](c2ccccc2)N1 [2-[2-(2-Fluorophenyl)ethyl]-cis-4,5-diphenyl-4,5-dihydro-1H-imidazole trifluoroacetate]	164 nM	–
COc1ccccc1CCC1=N[C@@H](c2ccccc2)[C@@H](c2ccccc2)N1 [2-[2-(2-Methoxyphenyl)ethyl]-cis-4,5-diphenyl-4,5-dihydro-1H-imidazole trifluoroacetate]	832 nM	–
c1ccc(CCCCC2=N[C@H](c3ccccc3)[C@H](c3ccccc3)N2)cc1 [2-[4-phenyl-butyl]-cis-4,5-diphenyl-4,5-dihydro-1H-imidazole trifluoroacetate]	–	610 nM
Fc1ccc(CC2=N[C@@H](c3cccc(F)c3)[C@@H](c3cccc(F)c3)N2)cc1 [2-(4-Fluorobenzyl)-cis-4,5-bis-(3-fluorophenyl)-4,5-dihydro-1H-imidazole trifluoroacetate]	217 nM	–
c1ccc([C@H]2NC(COC3CCCCC3)=N[C@H]2c2ccccc2)cc1 [2-[(Cyclohexyloxy)methyl]-cis-4,5-diphenyl-4,5-dihydro-1H-imidazole trifluoroacetate]	315 nM	–
OC(CC1=N[C@@H](c2ccccc2)[C@@H](c2ccccc2)N1)c1ccccc1 (stereo partly drawn) [2-(cis-4,5-diphenyl-4,5-dihydro-1H-imidazol-2-yl)-1-phenylethan-1-ol]	195 nM	–
Fc1cccc([C@H]2NC(Cc3ccc(F)c(F)c3)=N[C@H]2c2cccc(F)c2)c1 [2-(3,4-Difluorobenzyl)-cis-4,5-bis-(3-fluorophenyl)-4,5-dihydro-1H-imidazole trifluoroacetate]	79 nM	–
Clc1cccc(CCC2=N[C@H](c3ccccc3)[C@H](c3ccccc3)N2)c1 [2-[2-(3-Chlorophenyl)ethyl]-cis-4,5-diphenyl-4,5-dihydro-1H-imidazole trifluoroacetate]	120 nM	–
Fc1cccc([C@H]2NC(CCc3cccs3)=N[C@H]2c2cccc(F)c2)c1 [2-[(2-Thiophen-2-yl)ethyl]-cis-4,5-bis-(3-fluorophenyl)-4,5-dihydro-1H-imidazole trifluoroacetate]	592 nM	–
Fc1ccc(CSC2=N[C@@H](c3ccccc3)[C@@H](c3ccccc3)N2)cc1F [2-[(3,4-Difluorobenzyl)thio]-cis-4,5-diphenyl-4,5-dihydro-1H-imidazole hydrochloride]	461 nM	–

Further lines, with some results ahead:

IC50 (read-out: IC50)	Structure (SMILES)	IC50 (IC50 (nM))
592 nM	Fc1cccc(CNC2=N[C@@H](c3ccccc3Cl)[C@@H](c3ccccc3Cl)N2)c1 [[cis-4,5-bis-(2-Chlorophenyl)-4,5-dihydro-1H-imidazol-2-yl]-(3-fluorobenzyl)amine hydrochloride]	–
102 nM	Fc1cc(F)cc(CNC2=N[C@@H](c3ccccc3)[C@@H](c3ccccc3)N2)c1 [(cis-4,5-Diphenyl-4,5-dihydro-1H-imidazol-2-yl)-(3,5-difluorobenzyl)amine hydrochloride]	–
325 nM	c1ccc(COCC2=N[C@@H](c3ccccc3)[C@@H](c3ccccc3)N2)cc1 [cis-4,5-diphenyl-2-benzyloxymethyl-4,5-dihydro-1H-imidazole]	–
319 nM	Cc1ccc(F)cc1CC1=N[C@@H](c2ccccc2)[C@@H](c2ccccc2)N1 [trifluoroacetate]	–
108 nM	C[C@@H](C1=N[C@@H](c2ccccc2)[C@@H](c2ccccc2)N1)c1ccccc1 [trifluoroacetate]	–
275 nM	Cc1ccc([C@H]2NC(NCc3ccccc3)=N[C@H]2c2ccc(C)cc2)cc1 [[cis-4,5-bis-(4-Methylphenyl)-4,5-dihydro-1H-imidazol-2-yl]-benzylamine hydrochloride]	–
46 nM	Fc1ccc(CC2=N[C@H](c3ccccc3)[C@H](c3ccccc3)N2)cc1 [cis-4,5-diphenyl-2-(4-fluorobenzyl)-4,5-dihydro-1H-imidazole]	–
826 nM	Fc1cccc(Cl)c1CC1=N[C@@H](c2ccccc2)[C@@H](c2ccccc2)N1 [trifluoroacetate]	–
121 nM	Cc1ccccc1[C@H]1NC(NCc2cccc(F)c2)=N[C@H]1c1ccccc1C [[cis-4,5-bis-(2-Methylphenyl)-4,5-dihydro-1H-imidazol-2-yl]-(3-fluorobenzyl)amine hydrochloride]	–
423 nM	CC(C1=N[C@@H](c2ccccc2)[C@@H](c2ccccc2)N1)c1ccc(Cl)cc1 (relative stereo) [trifluoroacetate]	–
63 nM	C[C@@]1(c2ccccc2)N=C(NCc2ccc(F)cc2)N[C@@H]1c1ccccc1 (relative stereo) [(cis-4,5-Diphenyl-4-methyl-4,5-dihydro-1H-imidazol-2-yl)-(4-fluorobenzyl)amine hydrochloride]	–
404 nM	Clc1ccc([C@H]2NC(NCc3ccccc3)=N[C@H]2c2ccc(Cl)cc2)cc1 [[cis-4,5-bis-(4-Chlorophenyl)-4,5-dihydro-1H-imidazol-2-yl]-benzylamine hydrochloride]	–
521 nM	Brc1ccccc1CSC1=N[C@@H](c2ccccc2)[C@@H](c2ccccc2)N1 [cis-4,5-diphenyl-2-(2-bromobenzyl)thio-4,5-dihydro-1H-imidazole]	–
150 nM	Cc1ccc([C@H]2NC(NCc3ccc(F)c(F)c3)=N[C@H]2c2ccc(C)cc2)cc1 [[cis-4,5-bis-(4-Methylphenyl)-4,5-dihydro-1H-imidazol-2-yl]-(3,4-difluorobenzyl)-amine hydrochloride]	–
77 nM	Cc1ccccc1[C@H]1NC(NCc2ccc(F)c(F)c2)=N[C@H]1c1ccccc1C [[cis-4,5-bis-(2-Methylphenyl)-4,5-dihydro-1H-imidazol-2-yl]-(3,4-difluorobenzyl)-amine hydrochloride]	–
471 nM	Clc1ccc(CNC2=N[C@@H](c3ccccc3)[C@@H](c3ccccc3)N2)cc1 [cis-4,5-diphenyl-2-(4-chlorobenzyl)amino-4,5-dihydro-1H-imidazole]	–
409 nM	COc1ccccc1CNC1=N[C@@H](c2ccccc2)[C@@H](c2ccccc2)N1 [cis-4,5-diphenyl-2-(2-methoxybenzyl)amino-4,5-dihydro-1H-imidazole]	–
487 nM	C[C@@]1(c2ccccc2)N=C(COC2CCCC2)N[C@@H]1c1ccccc1 (relative stereo) [2-[(Cyclopentyloxy)methyl]-cis-4,5-diphenyl-4-methyl-4,5-dihydro-1H-imidazole hydrochloride]	–
376 nM	Cc1cccc(CC2=N[C@@H](c3ccccc3)[C@@H](c3ccccc3)N2)c1 [cis-4,5-diphenyl-2-(3-methylbenzyl)-4,5-dihydro-1H-imidazole]	–
